Literature values, collected in patent publication US10539496B2, “Instrument and method for optical particle sensing” (Invitrox, Inc., priority 2011, dated 2020).

Tested on: platelets
Conditions: platelet inhibition in arterial thrombophilic diseases; share of drug-treated patients

Structure (SMILES)	treated patients who do not respond to treatment
CC(=O)Oc1ccccc1C(=O)O [ASA, Aspirin]	Approximately 25%
COC(=O)[C@H](c1ccccc1Cl)N1CCc2sccc2C1 [Plavix, clopidogrel bisulfate]	~29%
